Consider one substance from patent publication US5879659A, “Ternary radiopharmaceutical complexes” (DuPont Pharmaceuticals Company, priority 1997, dated 1999).

This assay concerns thrombi. As to the kind of experiment: Canine Arteriovenous Shunt model. In kind it is in vivo, dog. As to conditions: first 1 hour shunt period, 150 μCi/kg, i.v. The protocol:
Canine Arteriovenous Shunt Model: Adult mongrel dogs of either sex (9-13 kg) were anesthetized with pentobarbital sodium (35 mg/kg,i.v.) and ventilated with room air via an endotracheal tube (12 strokes/min, 25 ml/kg). For arterial pressure determination, the left carotid artery was cannulated with a saline-filled polyethylene catheter (PE-240) and connected to a Statham pressure transducer (P23ID; Oxnard, Calif.). Mean arterial blood pressure was determined via damping the pulsatile pressure signal. Heart rate was monitored using a cardiotachometer (Biotach, Grass Quincy, Mass.) triggered from a lead II electrocardiogram generated by limb leads. A jugular vein was cannulated (PE-240) for drug administration. The both femoral arteries and femoral veins were cannulated with silicon treated (Sigmacote, Sigma Chemical Co. St Louis, Mo.), saline filled polyethylene tubing (PE-200) and connected with a 5 cm section of silicon treated tubing (PE-240) to form an extracorporeal arterio-venous shunts (A-V). Shunt patency was monitored using a doppler flow system (model VF-1, Crystal Biotech Inc, Hopkinton, Mass.) and flow probe (2-2.3 mm, Titronics Med. Inst., Iowa City, Iowa) placed proximal to the locus of the shunt. All parameters were monitored continuously on a polygraph recorder (model 7D Grass) at a paper speed of 10 mm/min or 25 mm/sec.
On completion of a 15 min post surgical stabilization period, an occlusive thrombus was formed by the introduction of a thrombogenic surface (4-0 braided silk thread, 5 cm in length, Ethicon Inc., Somerville, N.J.) into the shunt one shunt with the other serving as a control. Two consecutive 1 hr shunt periods were employed with the test agent administered as an infusion over 5 min beginning 5 min before insertion of the thrombogenic surface. At the end of each 1 hr shunt period the silk was carefully removed and weighed and the % incorporation determined via well counting. Thrombus weight was calculated by subtracting the weight of the silk prior to placement from the total weight of the silk on removal from the shunt. […]

Consider “^99m Tc(tricine) (tris(1-pyrazolyl)borohydride)-Cyclo(D-Val-NMeArg-Gly-Asp-Mamb(hydrazino-nicotinyl-5-Aca)) [Example 1]”, for which the “uptake in thrombi compared with positive control (In-111-platelets) and negative controls (Tc-99m-albumin, I-125-fibrinogen)” value (mixed arterial and venous conditions) was “taken up in thrombi under both mixed arterial and venous conditions equivalently to the positive control and to a significantly greater extent than the negative controls”. The “thrombus-to-blood ratio (target-to-background ratio)” value (mixed arterial conditions) came to 114 and the “thrombus-to-blood ratio (target-to-background ratio)” value (venous conditions) was 3.1.
